The source of these data is patent publication US20250188079A1, “INHIBITING CYCLIC AMP-RESPONSIVE ELEMENT-BINDING PROTEIN (CREB)” (Forma Therapeutics, Inc., priority 2019, published 2025).

Chain of CBP (Q92793 1085-1192): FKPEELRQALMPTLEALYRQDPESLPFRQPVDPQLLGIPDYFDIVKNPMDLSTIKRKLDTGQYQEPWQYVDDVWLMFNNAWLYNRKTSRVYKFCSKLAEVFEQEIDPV

This assay concerns the target CBP (Homo sapiens (Human), UniProt Q92793). Nature of the assay: HTRF biochemical assay for CBP activity (TR-FRET, bromodomain). In kind it is binding. The settings on record: geometric mean, 10-point 3-fold dilution 33 μM to 1.7 nM, read-out: BROMO IC50 TRF TB CBP (μM gmean). The gist of the method: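 IC50 derives from a 4-parameter logistic fit of % inhibition, calculated from the 520/490 nm TR-FRET ratio against DMSO and no-enzyme controls. Final compound levels spanned 33 μM to 1.7 nM (10 points, 3-fold), with CBP and peptide ligand in Hepes pH 7.5/GSH/BGG/BSA/Triton buffer, incubated at room temperature for varying times.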
As for `COC(=O)N1CCc2ccc3c(nc(N4CCC(C(=O)O)CC4)n3[C@H](C)Cc3ccc(F)c(F)c3)c2C1` (single isomer, unassigned) [Compound 307], the IC50 fell in the range of 0.1 to 1 µM.
The figure for `COC(=O)N1CCc2ccc3c(nc(Cc4cc(O)no4)n3[C@H](C)Cc3ccccc3)c2C1` [Compound 273] is 0.01 to 0.1 µM; for `COC(=O)N1CCc2ccc3c(nc([C@H]4CC[C@H](C(=O)O)CC4)n3[C@@H](C)[C@H](O)c3ccccc3)c2C1` [Compound 268] it is 0.01 to 0.1 µM; for `COC(=O)N1CCc2ccc3c(nc(-c4cccc(CC(=O)O)c4)n3[C@@H](C)Cn3cc(Cl)cn3)c2C1` [Compound 113] it is 0.001 to 0.01 µM.
As for `COC(=O)N1CCc2c([C@@H]3CCOC3)cc3c(nc([C@H]4CC[C@H](C(=O)O)CC4)n3CCc3ccccc3)c2C1` [Compound 90], the figure is 0.001 to 0.01 µM.
For the compound `COC(=O)N1CCc2ccc3c(nc(C45CC(C(=O)O)(C4)C5)n3[C@@H](C)Cc3ccccc3)c2C1` [Compound 119], the IC50 is 0.001 to 0.01 µM.
Turning to `COC(=O)N1CCc2ccc3c(nc(C4CCC(C(=O)O)CC4)n3[C@H](C)C[C@]3(C)CC[C@H](OC)CC3)c2C1` (stereo partly shown) [Compound 175], the IC50 was in the range of 0.01 to 0.1 µM.
The figure for `COC(=O)N1CCc2ccc3c(nc([C@H]4CC[C@H](S(=O)(=O)NC(C)=O)CC4)n3[C@@H](C)Cc3ccccc3)c2C1` [Compound 96] is 0.001 to 0.01 µM; for `COC(=O)N1CCc2ccc3c(nc(C4CCCCC4)n3[C@@H](C)C[C@H]3CCCC[C@H]3C(=O)O)c2C1` [Compound 204] it is 0.01 to 0.1 µM; for `COC(=O)N1CCc2ccc3c(nc([C@@H]4CCC[C@@H](C(=O)O)C4)n3[C@H](C)Cc3ccc(F)c(F)c3)c2C1` [Compound 217] it is 0.01 to 0.1 µM.
As for `COC(=O)N1CCc2c([C@H]3CCOC3)cc3c(nc([C@H]4CC[C@H](C(=O)O)CC4)n3CCc3ccccc3)c2C1` [Compound 136], the figure is 0.001 to 0.01 µM.
As for `COC(=O)N1CCc2ccc3c(nc(N4CCC(C(=O)O)CC4)n3[C@@H](C)Cn3cc(Cl)cn3)c2C1` [Compound 73], the figure is 0.001 to 0.01 µM; as for `COC(=O)N1CCc2ccc3c(nc([C@H]4CC[C@H](C(=O)O)CC4)n3[C@@H](C)Cc3c(F)cccc3F)c2C1` [Compound 289], 0.01 to 0.1 µM.
As for `COC(=O)N1CCc2ccc3c(nc(N4CCN(C(C)=O)CC4)n3[C@@H](C)Cc3ccccc3)c2C1` [Compound 324], the IC50 lay in the range of 0.1 to 1 µM.
The figure for `COC(=O)N1CCc2ccc3c(nc(C4CCN(S(C)(=O)=O)CC4)n3[C@@H](C)Cc3ccccc3)c2C1` [Compound 139] is 0.001 to 0.01 µM; for `COC(=O)N1CCc2ccc3c(nc([C@H]4CCCOC4)n3C[C@@H](C(=O)O)c3ccccc3)c2C1` [Compound 61] it is 0.001 to 0.01 µM; for `COC(=O)N1CCc2ccc3c(nc(C4CCCCC4)n3[C@@H](CC(=O)O)c3ccccc3)c2C1` [Compound 213] it is 0.01 to 0.1 µM.
For `COC(=O)N1CCc2ccc3c(nc([C@H]4CC[C@@H](C(=O)O)CC4)n3[C@@H](C)Cn3cc(Cl)cn3)c2C1` [Compound 264], the IC50 fell in the range of 0.01 to 0.1 µM.
As for `COC(=O)N1CCc2ccc3c(nc([C@H]4CC[C@@H](C(=O)O)C4)n3[C@@H](C)Cc3ccccc3C)c2C1` [Compound 218], the figure is 0.01 to 0.1 µM; as for `COC(=O)N1CCc2ccc3c(nc([C@H]4CC[C@H](C(=O)O)CC4)n3[C@H](C)C[C@@H]3CCCOC3)c2C1` [Compound 212], 0.01 to 0.1 µM; as for `COC(=O)N1CCc2ccc3c(nc(C4CCCCC4)n3CC[C@@H]3CCC[C@H](C(=O)O)C3)c2C1` [Compound 131], 0.001 to 0.01 µM.
The figure for `COC(=O)N1CCc2ccc3c(nc([C@H]4CC[C@H](C(=O)O)CC4)n3[C@@H](C)Cn3ncc4ccccc43)c2C1` [Compound 88] is 0.001 to 0.01 µM; for `COC(=O)N1CCc2ccc3c(nc([C@H]4CC[C@H](C(=O)O)CC4)n3[C@H](C)Cc3cc(F)cc(F)c3)c2C1` [Compound 253] it is 0.01 to 0.1 µM; for `COC(=O)N1CCc2ccc3c(nc(-c4cccc(C(C)(C)C(=O)O)c4)n3[C@@H](C)Cn3cc(Cl)cn3)c2C1` [Compound 185] it is 0.01 to 0.1 µM.
For `COC(=O)N1CCc2ccc3c(nc(N4CCC[C@@H](C(=O)O)C4)n3C[C@H](C)c3ccccc3)c2C1` [Compound 144], the half-maximal inhibitory concentration (IC50) was 0.001 to 0.01 µM.
The figure for `COC(=O)N1CCc2ccc3c(nc(-c4ccc(C(=O)O)c(OC)c4)n3[C@H](C)Cc3ccccc3)c2C1` [Compound 321] is 0.1 to 1 µM; for `COC(=O)N1CCc2ccc3c(nc(C4CCN(C(=O)O)CC4)n3[C@H](C)Cc3ccccc3)c2C1` [Compound 134] it is 0.001 to 0.01 µM; for `COC(=O)N1CCc2ccc3c(nc([C@H]4CC[C@H](C(=O)O)CC4)n3[C@@H](C)C[C@H]3CC[C@@H](OC(F)(F)F)CC3)c2C1` [Compound 226] it is 0.01 to 0.1 µM.
The figure for `COC(=O)N1CCc2ccc3c(nc([C@H]4CC[C@H](C(=O)O)CC4)n3[C@H]3CCc4ccccc4C3)c2C1` [Compound 315] is 0.1 to 1 µM.
As for `COC(=O)N1CCc2ccc3c(nc([C@H]4CC[C@H](C(=O)O)CC4)n3[C@@H](C)C[C@H]3CC[C@H](OC)CC3)c2C1` [Compound 202], the figure is 0.01 to 0.1 µM.
As to `COC(=O)N1CCc2ccc3c(nc([C@H]4CC[C@H](C(=O)O)CC4)n3[C@@H](C)Cc3ccccc3F)c2C1` [Compound 314], the IC50 was in the range of 0.1 to 1 µM.
Regarding `COC(=O)N1CCc2ccc3c(nc(C4CCCCC4)n3C[C@@H](CC(=O)O)c3cc(F)cc(OC)c3)c2C1` [Compound 35], the 50% inhibitory concentration (IC50) was 0.001 to 0.01 µM.
As for `COC(=O)N1CCc2ccc3c(nc(-c4ccc(C(=O)O)cc4)n3[C@H](C)Cc3ccccc3)c2C1` [Compound 279], the figure is 0.01 to 0.1 µM; as for `COC(=O)N1CCc2ccc3c(nc([C@H]4CC[C@H](S(N)(=O)=O)CC4)n3[C@@H](C)Cc3ccccc3)c2C1` [Compound 97], 0.001 to 0.01 µM; as for `COC(=O)N1CCc2ccc3c(nc(N4CCN(S(C)(=O)=O)CC4)n3[C@@H](C)Cc3ccccc3)c2C1` [Compound 80], 0.001 to 0.01 µM.
Regarding `COC(=O)N1CCc2ccc3c(nc([C@H]4CC[C@H](C(=O)O)CC4)n3[C@@H](C)Cc3ccc(C)cc3)c2C1` [Compound 93], the IC50 fell in the range of 0.001 to 0.01 µM.
The figure for `COC(=O)N1CCc2ccc3c(nc(N4CCC[C@@H](C(=O)O)C4)n3[C@@H](C)Cc3ccccc3)c2C1` [Compound 82] is 0.001 to 0.01 µM; for `COC(=O)N1CCc2ccc3c(nc(N4CCC(C(=O)O)CC4)n3[C@@H](C)Cc3ccccc3C)c2C1` [Compound 63] it is 0.001 to 0.01 µM.
With `COC(=O)N1CCc2c(Cl)cc3c(nc([C@H]4CC[C@H](C(=O)O)CC4)n3CCc3ccccc3)c2C1` [Compound 154], the IC50 is 0.001 to 0.01 µM.
With `COC(=O)N1CCc2ccc3c(nc([C@@H]4CCC[C@H](C(=O)O)C4)n3[C@H](C)Cc3ccccc3)c2C1` (single isomer, unassigned) [Compound 233], the half-inhibitory concentration (IC50) lay in the range of 0.01 to 0.1 µM.
The figure for `COC(=O)N1CCc2ccc3c(nc(-c4cccc(C(C)(C)C(=O)O)c4)n3[C@H](C)Cn3cc(Cl)cn3)c2C1` [Compound 320] is 0.1 to 1 µM; for `COC(=O)N1CCc2ccc3c(nc([C@H]4CC[C@H](C(=O)O)CC4)n3[C@@H](C)Cc3ccc4c(c3)CCO4)c2C1` [Compound 65] it is 0.001 to 0.01 µM; for `COC(=O)N1CCc2ccc3c(nc([C@H]4CCC[C@H](C(=O)O)C4)n3C[C@H]3CC[C@H](OC)CC3)c2C1` [Compound 255] it is 0.01 to 0.1 µM.
